# Legend:
# [1] = Solubility of peptide during conjugation; format: physicochemical; details: conjugation reaction mixture; peptide dissolved in DMSO before addition
# EAE mouse model [2] = test: Suppression of EAE, prophylactic and vaccine-like treatment (Example 2); format: in vivo, SJL/J female mice
# Description: Six-to-eight week old SJL/J female mice were immunized subcutaneously with 200 μg PLP139-151 peptide in a 0.2 ml emulsion consisting of equal volumes of PBS and complete Freund's adjuvant (CFA) containing killed mycobacterium tuberculosis strain H37RA at a final concentration of 4 mg/ml (Difco, Detroit, Mich.). The PLP/CFA emulsion was administered to regions above the shoulder and the flanks (total of 4 sites, 50 μl at each injection site). In addition, 200 ng of pertussis toxin was injected intraperitoneally on the day of immunization (day 0) and 2 days post-immunization.
# The mice then received either intravenous or subcutaneous injections of IDAC (10 or 26 nmol/injection) or peptides (100 nmol/injection for Ac-PLP-BPI-NH2-2 or 50 nmol/injection/mouse for Ac-PLP-cIBR1-NH2). The prophylactic disease suppression was carried out with subcutaneous or intravenous injections of IDAC molecules on days 4 and 7, or BPI molecules on days 4, 7, and 10. Mice receiving vaccine-like treatment were given subcutaneous injections of IDAC and BPI molecules at 11, 8, and 5 days prior to the induction of disease. As negative controls, mice were treated with PBS, 1-domain, and GMB-I-domain. Disease progression was evaluated by monitoring the change in weight of the mice and clinical scoring based on the severity of nerve damage ranging from 0 to 5: 0—no clinical symptoms of disease; 1—tail weakness or limp tail; 2—paraparesis (weakness or partial paralysis of one or two hind limbs); 3—paraplegia (complete paralysis of two hind limbs); 4—paraplegia with forelimb weakness or paralysis; 5—moribund (at this point, the affected mice were euthanized).
# Statistical differences among the groups in clinical disease scores were determined by calculating the average score for each mouse from day 12 to day 17 by one-way analysis of variance followed by Fisher's least significant difference. Statistical differences in body weight among groups were also analyzed in the same fashion, but from day 12 to day 24. Comparison of cytokine concentrations was also performed by one-way analysis of variance. All analyses were performed using StatView (SAS Institute, Cary, N.C.).
# mouse EAE model = test: Suppression of EAE in PLP139-151/CFA-immunized mice (Example 1); format: in vivo, female inbred SJL/J mice; details: i.v., IDAC 26 nmol/injection days 4, 7, Ac-PLP-BPI-NH2-2 100 nmol/injection days 4, 7, 10, vs PBS
# Description: Female inbred SJL/J mice, 5-7 weeks old, were randomly divided into different groups. All mice were immunized with PLP139-151 in Freund's complete adjuvant (CFA) to induce EAE, as reported previously (3, 4). The PLP/CFA emulsion (50 μL per site) was administered to four separate regions above the shoulder and on the flanks. In addition, 200 ng of pertussis toxin (List Biological Laboratories Inc., Campbell, Calif.) was injected intraperitoneally on day 0 and 2.
# After disease stimulation, one group of mice received intravenous (i.v.) injections of 26 nmol/injection/day of the conjugate IDAC on days 4 and 7. The second and third groups of mice received i.v. injections of 100 nmol/injection/day of Ac-PLP-BPI-NH2-2 and 100 microliter of PBS, respectively, on days 4, 7, and 10. The animals were weighed and observed daily. Disease progression was evaluated observed using a blinded method as reported previously (3, 4). The clinical scores were rated using the following scale: 0—no clinical signs of disease; 1—tail weakness or limp tail; 2—paraparesis (weakness or incomplete paralysis of one or two hind limbs); 3—paraplegia (complete paralysis of two hind limbs); 4—paraplegia with forelimb weakness or paralysis; and 5—moribund or dead.
# Statistical differences among the groups in clinical disease scores were determined by calculating the average score for each mouse from the day of disease onset to day 20 by One-way Analysis of Variance followed by Fisher's least significant difference using StatView (SAS Institute, Cary, N.C.). Statistical differences among the groups in body weight were also analyzed in the same way. The presence of significant difference is denoted with p-values of <0.05 or <0.001.
# EAE mouse model [3] = details: earlier study (ref. 7); cited from earlier work
solubility [1],Substance,"clinical scores (suppression of EAE) (EAE mouse model [2]; vaccine-like s.c. days -11, -8, -5, IDAC-3 10 nmol/injection, Ac-PLP-BPI-NH2-2 100 nmol/injection, vs PBS, p<0.005, days 12-17)","change in body weight (EAE mouse model [2]; vaccine-like s.c. days -11, -8, -5, IDAC-3 10 nmol/injection, Ac-PLP-BPI-NH2-2 100 nmol/injection, vs PBS, p<0.005, days 12-24)","onset of disease (incidence of disease) (EAE mouse model [2]; vaccine-like s.c., IDAC-3 26 nmol/injection days -11, -8, Ac-PLP-BPI-NH2-2 100 nmol/injection days -11, -8, -5)","relapse of disease (long-term effect) (EAE mouse model [2]; vaccine-like s.c., IDAC-3 26 nmol/injection days -11, -8, Ac-PLP-BPI-NH2-2 100 nmol/injection days -11, -8, -5, days 45-55)","clinical disease scores (suppression of EAE) (mouse EAE model; p<0.0001, days 12-17)","incidence of disease (mouse EAE model; p<0.0001, days 12-24)","suppression of EAE, capped vs uncapped peptide (EAE mouse model [3])"
low solubility,"Ac-GWYRSPFSRVVHLC-NH2 [MOG-Cys, Ac-GWYRSPFSRVVHLC-NH2]",–,–,–,–,–,–,–
–,"Ac-HSLGKWLGHPDKF-(AcpGAcpGAcp)2-ITDGEATDSG-NH2 [Ac-PLP-BPI-NH2-2, reference compound]",significantly suppressed EAE compared to PBS,significantly suppressed EAE compared to PBS,Delay in the onset of disease,along-term effect to prevent relapse,complete suppression of the disease,completely eliminated,could suppress EAE better than its uncapped counterpart (PLP-BPI)
